Experimental data reported in article PMC1764434 (PLoS Clinical Trials, 2007).
Like-named read-outs stand apart in the source and are kept apart here.

Experiments:
[1] = Urinary excretion and renal clearance (24-hour urine collections, days 1-3)
[2] = Blood pharmacokinetics after oral dosing (fluorescence HPLC, noncompartmental WinNonlin model); type: in vivo, human; details: for AUC: read-out: AUCτ of metabolite; for MRT: read-out: MRT of metabolite (converted); for half-life: read-out: t1/2 of metabolite (converted)
Procedure: Study drugs were administered in the GCRC on an empty stomach between 8 and 9 AM the morning after admission (after fasting for ≥ 10 h).

[3] = system: CQ-resistant P. falciparum; details: cited from earlier work
[4] = human, whole blood, oral, 1750 mg, after 1,750 mg AQ-13 over 3 d, median (range)
[5] = human, whole blood, oral, after 700 mg AQ-13, median (range)
[6] = human, whole blood, after 600 mg oral dose of parent drug, median (range)

Structure (SMILES) | mono-dealkylated metabolite/parent ratio in urine ([1]; days 1-3, AQ-72/AQ-13 and MDCQ/CQ) [%] | time after drug administration at which metabolite/parent ratio reached 1.0 ([2]; 600 mg AQ-13, AQ-72/AQ-13 ratio) [days] | metabolite/parent ratio in blood at the Cmax of the parent drug ([2]; 600 mg dose, AQ-72/AQ-13 (mean) or MDCQ/CQ) | time to appearance of metabolite in the blood ([2]; after oral 600 or 700 mg AQ-13 or 600 mg CQ) [h] | AUC ([2]; human, whole blood, oral, 700 mg, after 700 mg AQ-13, median (range)) [µM·h] | AUC [2, 4] [µM·h] | MRT [2, 4] [days] | half-life [2, 4] [days] | Tmax ([2]; human, whole blood, oral, after 600 mg AQ-13, median, read-out: Tmax of metabolite) [days] | MRT [2, 5] [days] | half-life [2, 5] [days] | AUC ([2]; human, whole blood, po, 600 mg, after 600 mg oral dose of parent drug (CQ or AQ-13), whole blood, median (range)) [µM·h] | MRT [2, 6] [days] | half-life [2, 6] [days] | Cmax ([2]; human, whole blood, after 600 mg oral dose of parent drug, median, read-out: Cmax of metabolite) [nM] | activity of major metabolite against CQ-resistant parasites [3] | second (di-dealkylated) metabolite/parent ratio in urine ([1]; days 1-3, AQ-73/AQ-13 and BDCQ/CQ) [%] | detection of di-dealkylated metabolite in urine ([1]; urine collections days 1-3 after dosing) | detection of di-dealkylated metabolite in the blood ([2]; after oral AQ-13 or CQ)
CCNCCCNc1ccnc2cc(Cl)ccc12 [AQ-72] | 23.6 | 3 to 6 | 0.37 | ≤ 1 | 262 | 440 | 17.4 | 10.5 | 0.625 | 18.6 | 12.3 | 211 | 16.6 | 11.1 | 590 | not active against CQ-resistant parasites | – | – | –
NCCCNc1ccnc2cc(Cl)ccc12 [AQ-73] | – | – | – | – | – | – | – | – | – | – | – | – | – | – | – | – | 5.2 | identified in urine collections | not detected in the blood
